From US6680070B1, “Particulate blends and compacted products formed therefrom, and the preparation thereof” (Albemarle Corporation, priority 2000, dated 2004)
“And” between values parts separate entries of the source, which are not always exact repeats. Identical values can stand only once.

Assays:
[1] = Large tablet compaction, 2.5-inch punch and die, Carver Press; conditions: 63.8 g, 2.5-inch die, 5000 psi, no dwell time, silicone oil lubricant
Protocol: Tableting operations were carried out using three different samples of 1,3-dibromo-5,5-dimethylhydantoin. In these operations, a 2.5-inch diameter stainless punch and die were used to compact samples weighing 63.8 grams each. […] A thin film of silicone oil lubricant was applied to the internal faces of the punch and die to promote good mold release. A Carver Press was used to apply a pressure of 5000 psi to the material. There was no dwell time, and the pressure was immediately released on obtaining 5000 psi. On extraction from the die, a visual observation of the compacted form was made.

[2] = Storage stability at 50° C., wt % active bromine by iodometric titration; assay type: physicochemical
Description: Three more samples of the blend (5 g each) were compacted in the same manner, and each time a single tablet was extracted from the die after the pressure had been released. The tablets were manually broken into two equally-sized pieces. One half of each tablet was crushed into a powder with a mortar and pestle, and the powder was titrated using the standard, well-known, iodometric method with a starch indicator to determine the wt % of active bromine. The other half of each tablet was placed in a sealed glass vial and placed in an oven at 50° C. After 30 days, the samples were removed from the oven, ground up, and titrated to determine its wt % of active bromine using the same analytical method.

[3] = Granulation through Chilsonator breaker and screens; assay type: physicochemical; conditions: Chilsonator breaker, screens U.S. mesh 12 to 18
Protocol: The mixing time was 60 minutes in each case. […] The mixing time was 240 minutes. Each blend was passed through a Chilsonator® breaker (The Fitzpatrick Company, Elmhurst, Ill.) and a set of screens to produce compacted granules of U.S. mesh size 12 to 18. […] Instead, the unblended material exiting the Chilsonator® was mostly loose powder.

[4] = Compaction test: tablet pressed in die, visual observation on extraction; assay type: physicochemical; conditions: 0.71 inch die, 5000 psi, no dwell time, die dusted with MICROPRO 400; listed as control sample
[5] = Crush strength test (Sintech 1/S compression apparatus); assay type: physicochemical; conditions: Table 8, no binder; for Crush Strength (force at breaking point), single tablet / Crush Strength per inch thickness, single tablet: 5 g, 5000 psi, aged 6 days at room temperature
Description: In each test, tablets made from 5 g of blended material were used. […] The apparatus includes a horizontal circular-shaped load cell interfaced with a computer, a digital micrometer also interfaced with the computer, and a vertical screw-driven piston that is disposed above the load cell and adapted to apply a downward force perpendicular to the load cell. The procedure for measuring crush strength involves measuring the thickness of the tablet with the micrometer to provide a digitized input to the computer. Next the tablet is placed on its edge on the load cell with the piston in contact with the upper edge of the tablet. Then the apparatus is activated whereby the piston commences applying a progressively increasing downward diametral force to the tablet. At the same time, the load cell continuously measures the downward force being applied to the tablet, and the input of such measurements is transmitted to the computer. When the force being applied reaches the point where the amount of force suddenly decreases to 10% of the immediately preceding force, the tablet has reached the breaking point, and the application of the force is immediately terminated by the software program. From the inputs to the computer, two values are provided, namely the pounds of force at the breaking point of the tablet, and the pounds of force per inch thickness of the tablet at the breaking point. Thus the greater the force applied, the greater the crush strength. […] When the compacted article is in a form other than a cylindrical tablet (e.g., a granule, caplet, briquette, or puck), the article being tested is to be positioned on the load cell and under the screw-driven piston with the longest axis of the article in the vertical position. In addition, the micrometer is used to measure the thickest portion of the article when the article is positioned on the load cell and under the screw-driven piston with the longest axis of the article in the vertical position.

[6] = Naproxen caplet compaction at 25,000 psi; assay type: physicochemical; conditions: imprinted stainless steel punch and die, 0.12-inch cross-sectional area
Protocol: A blend of commercially available virgin naproxen powder (Albemarle Corporation, Richmond, Va.) and micronized polyethylene wax (MPP-611; Micro Powders, Inc., Tarrytown, N.Y.) was formed. The blend contained 10 wt % of the micronized wax. Two 250 mg samples and three 318 mg samples of this blend were compacted in an imprinted stainless steel punch and die set of 0.12-inch cross-sectional area. Upon attaining a pressure of 25,000 psi, the pressure was released. […] The caplets were shiny and free of edge-burrs and surface defects. The imprinted lettering from the top punch was clearly impressed into the caplets.
Instead, as the punches were separated, approximately half of the naproxen had stuck to the top punch and the remainder had stuck to the bottom punch.

CC1(C)C(=O)N(Br)C(=O)N1Br [DBDMH - without wax binder]
Observations (large tablet on extraction from die) ([1]; listed as Commercial sample without binder): Tablet delaminates | Wt % Active Bromine, Initial ([2]; half tablet crushed, iodometric titration): 55.3 Wt % | Wt % Active Bromine, After 30 days ([2]; half tablet in sealed glass vial, oven at 50° C., 30 days): 55.2 Wt % | Compaction into granules [3]: did not compact and form granules | Observations (tablet on extraction from die) [4]: not possible to extract a single tablet from the die

CC1(C)C(=O)N(Br)C(=O)N1Br [Set B]
Crush Strength (force at breaking point), single tablet ([5]; listed as B): 10.7 lb. and 12.8 lb. and 9.8 lb. | Crush Strength per inch thickness, single tablet ([5]; listed as B): 30.4 lb./in. and 36.4 lb./in. and 27.8 lb./in. | Crush Strength (force at breaking point), average of set ([5]; listed as B): 11.1 lb. | Crush Strength per inch thickness, average of set ([5]; listed as B): 31.5 lb./in.

CC1(C)C(=O)N(Br)C(=O)N1Br [Set A]
Crush Strength (force at breaking point), single tablet ([5]; listed as A): 20.9 lb. and 25.5 lb. and 19.2 lb. and 22.8 lb. and 23.7 lb. | Crush Strength per inch thickness, single tablet ([5]; listed as A): 57.3 lb./in. and 69.5 lb./in. and 52.5 lb./in. and 62.1 lb./in. and 65.0 lb./in. | Crush Strength (force at breaking point), average of set ([5]; listed as A): 22.4 lb. | Crush Strength per inch thickness, average of set ([5]; listed as A): 61.3 lb./in.

COc1ccc2cc([C@H](C)C(=O)O)ccc2c1 [naproxen]
Caplet formation [6]: No unbroken caplet of naproxen could be produced

CC1(C)C(=O)N(Br)C(=O)N1Br
Observations (large tablet on extraction from die) [1]: Intact tablet exhibiting
